According to patent publication US11208412B2 (DAEGU-GYEONGBUK MEDICAL INNOVATION FOUNDATION, priority 2017, dated 2021):

Legend:
Test in all cases: Kinase selectivity, DiscoverX scanMAX Kinase assay panel (% control)
Format in all cases: binding
[1] = target: T1, kinases of the scanMAX Kinase assay panel (Homo sapiens, UniProt P00533, L861Q); details: EGFR(L861Q); 1 uM
T1 construct: purchased DiscoverX Co. (contract measurement) scanMAX Kinase assay panel
Method in brief: (§1)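 Each enzyme is treated with drug at 1 uM in DMSO, then signal is scaled between a positive control (0%) and DMSO (100%) to give % control. Kinases with % control under 35% are scored as inhibited.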

[2] = target: T2, kinases of the scanMAX Kinase assay panel (Homo sapiens, UniProt P19784); details: CSNK2A2; 1 uM
T2 construct: purchased DiscoverX Co. (contract measurement) scanMAX Kinase assay panel
Method in brief: as §1

[3] = target: T3, kinases of the scanMAX Kinase assay panel (Homo sapiens, UniProt P54753); details: EPHB3; 1 uM
T3 construct: purchased DiscoverX Co. (contract measurement) scanMAX Kinase assay panel
T3 sequence (P54753 34-998): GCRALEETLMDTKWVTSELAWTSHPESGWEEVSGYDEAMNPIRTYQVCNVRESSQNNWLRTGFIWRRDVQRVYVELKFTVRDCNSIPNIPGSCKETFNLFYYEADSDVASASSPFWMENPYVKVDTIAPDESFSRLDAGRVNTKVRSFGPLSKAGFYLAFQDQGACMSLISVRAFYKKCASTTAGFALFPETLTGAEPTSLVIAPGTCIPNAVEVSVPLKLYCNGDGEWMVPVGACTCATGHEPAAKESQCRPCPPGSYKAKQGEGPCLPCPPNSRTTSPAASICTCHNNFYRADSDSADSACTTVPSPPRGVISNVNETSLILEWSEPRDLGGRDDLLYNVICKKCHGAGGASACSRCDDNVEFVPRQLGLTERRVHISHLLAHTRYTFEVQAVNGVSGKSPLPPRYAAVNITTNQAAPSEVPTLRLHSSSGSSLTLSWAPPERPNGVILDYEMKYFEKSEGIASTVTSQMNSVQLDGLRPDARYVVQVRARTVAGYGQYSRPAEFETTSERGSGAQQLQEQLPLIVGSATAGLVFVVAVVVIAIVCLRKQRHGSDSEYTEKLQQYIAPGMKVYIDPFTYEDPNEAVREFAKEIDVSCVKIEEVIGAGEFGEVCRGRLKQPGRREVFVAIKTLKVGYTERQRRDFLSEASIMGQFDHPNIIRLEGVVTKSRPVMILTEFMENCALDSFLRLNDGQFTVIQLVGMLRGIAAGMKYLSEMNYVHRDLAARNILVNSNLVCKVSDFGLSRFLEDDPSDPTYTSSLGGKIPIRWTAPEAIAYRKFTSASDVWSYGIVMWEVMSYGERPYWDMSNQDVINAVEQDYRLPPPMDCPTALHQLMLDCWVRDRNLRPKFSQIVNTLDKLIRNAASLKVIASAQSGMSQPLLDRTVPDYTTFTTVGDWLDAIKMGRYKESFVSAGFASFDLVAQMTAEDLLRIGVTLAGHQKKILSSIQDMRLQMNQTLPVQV
Method in brief: as §1

[4] = target: T4, kinases of the scanMAX Kinase assay panel (Homo sapiens, UniProt P78356); details: PIP5K2B; 1 uM
T4 construct: purchased DiscoverX Co. (contract measurement) scanMAX Kinase assay panel
T4 sequence (P78356 1-416): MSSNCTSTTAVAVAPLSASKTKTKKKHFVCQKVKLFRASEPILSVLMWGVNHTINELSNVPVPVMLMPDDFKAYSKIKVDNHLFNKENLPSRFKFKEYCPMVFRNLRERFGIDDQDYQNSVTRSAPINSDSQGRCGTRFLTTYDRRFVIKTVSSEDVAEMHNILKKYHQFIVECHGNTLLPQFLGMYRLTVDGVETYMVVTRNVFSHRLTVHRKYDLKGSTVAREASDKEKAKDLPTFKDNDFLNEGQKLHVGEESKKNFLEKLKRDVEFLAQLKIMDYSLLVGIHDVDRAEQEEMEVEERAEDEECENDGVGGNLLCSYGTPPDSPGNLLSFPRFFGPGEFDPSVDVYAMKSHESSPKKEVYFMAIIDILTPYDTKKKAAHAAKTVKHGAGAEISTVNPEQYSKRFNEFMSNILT
Method in brief: as §1

[5] = target: T5, kinases of the scanMAX Kinase assay panel (Homo sapiens, UniProt Q16832); details: DDR2; 1 uM
T5 construct: purchased DiscoverX Co. (contract measurement) scanMAX Kinase assay panel
T5 sequence (Q16832 22-855): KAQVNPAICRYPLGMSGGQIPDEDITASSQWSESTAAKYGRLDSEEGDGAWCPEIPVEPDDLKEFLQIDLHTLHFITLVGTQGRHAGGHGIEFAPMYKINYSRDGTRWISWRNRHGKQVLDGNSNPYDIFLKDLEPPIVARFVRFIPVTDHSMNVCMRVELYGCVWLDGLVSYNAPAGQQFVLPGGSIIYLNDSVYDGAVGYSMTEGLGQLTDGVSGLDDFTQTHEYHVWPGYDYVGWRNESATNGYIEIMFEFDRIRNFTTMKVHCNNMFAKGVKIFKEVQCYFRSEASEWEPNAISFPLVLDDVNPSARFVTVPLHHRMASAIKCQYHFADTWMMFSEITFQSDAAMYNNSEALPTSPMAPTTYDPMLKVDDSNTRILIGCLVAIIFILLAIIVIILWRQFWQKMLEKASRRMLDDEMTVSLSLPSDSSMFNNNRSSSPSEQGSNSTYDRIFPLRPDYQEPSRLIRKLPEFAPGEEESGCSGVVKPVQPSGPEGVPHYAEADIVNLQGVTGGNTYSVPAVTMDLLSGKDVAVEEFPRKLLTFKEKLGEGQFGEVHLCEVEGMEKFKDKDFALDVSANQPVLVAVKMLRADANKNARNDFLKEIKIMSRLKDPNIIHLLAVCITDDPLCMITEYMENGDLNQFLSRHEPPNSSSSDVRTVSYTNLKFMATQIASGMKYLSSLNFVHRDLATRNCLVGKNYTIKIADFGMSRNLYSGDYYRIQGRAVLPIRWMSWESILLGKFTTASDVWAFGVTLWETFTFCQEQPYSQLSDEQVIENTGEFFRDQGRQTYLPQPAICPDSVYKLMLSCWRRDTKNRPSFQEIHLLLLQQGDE
Method in brief: as §1

[6] = target: T6, kinases of the scanMAX Kinase assay panel (Homo sapiens, UniProt Q9NSY1); details: BIKE; 1 uM
T6 construct: purchased DiscoverX Co. (contract measurement) scanMAX Kinase assay panel
Method in brief: as §1

T6 sequence (Q9NSY1 whole entry): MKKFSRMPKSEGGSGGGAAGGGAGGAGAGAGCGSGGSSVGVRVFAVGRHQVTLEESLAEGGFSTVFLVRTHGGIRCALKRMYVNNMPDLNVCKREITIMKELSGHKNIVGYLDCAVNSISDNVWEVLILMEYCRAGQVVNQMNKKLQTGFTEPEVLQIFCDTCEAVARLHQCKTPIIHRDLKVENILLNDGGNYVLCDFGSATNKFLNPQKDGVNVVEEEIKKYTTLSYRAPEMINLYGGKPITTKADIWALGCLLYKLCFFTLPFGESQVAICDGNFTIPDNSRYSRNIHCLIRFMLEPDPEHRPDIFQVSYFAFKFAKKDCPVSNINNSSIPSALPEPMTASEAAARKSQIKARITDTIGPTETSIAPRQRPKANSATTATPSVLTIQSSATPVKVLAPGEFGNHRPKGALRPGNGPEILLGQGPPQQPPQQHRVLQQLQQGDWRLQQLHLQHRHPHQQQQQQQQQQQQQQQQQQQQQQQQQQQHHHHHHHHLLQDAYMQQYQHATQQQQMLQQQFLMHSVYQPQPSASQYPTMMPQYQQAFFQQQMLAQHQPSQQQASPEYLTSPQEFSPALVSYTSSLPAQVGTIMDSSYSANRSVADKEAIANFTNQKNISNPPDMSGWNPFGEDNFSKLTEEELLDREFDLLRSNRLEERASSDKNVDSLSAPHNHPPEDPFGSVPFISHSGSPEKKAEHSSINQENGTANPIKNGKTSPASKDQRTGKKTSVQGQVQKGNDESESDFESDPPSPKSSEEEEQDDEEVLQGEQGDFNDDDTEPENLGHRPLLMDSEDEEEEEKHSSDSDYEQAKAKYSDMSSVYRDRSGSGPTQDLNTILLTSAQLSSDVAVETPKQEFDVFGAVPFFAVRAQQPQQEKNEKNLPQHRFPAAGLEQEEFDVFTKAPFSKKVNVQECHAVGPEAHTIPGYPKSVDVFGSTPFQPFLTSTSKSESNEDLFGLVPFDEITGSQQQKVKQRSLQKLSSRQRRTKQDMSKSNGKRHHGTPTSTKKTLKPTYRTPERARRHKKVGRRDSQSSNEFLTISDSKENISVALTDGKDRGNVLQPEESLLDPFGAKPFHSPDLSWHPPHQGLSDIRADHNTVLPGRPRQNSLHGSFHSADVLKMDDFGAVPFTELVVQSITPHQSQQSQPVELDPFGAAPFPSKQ
T1 sequence (P00533 25-1210 L861Q): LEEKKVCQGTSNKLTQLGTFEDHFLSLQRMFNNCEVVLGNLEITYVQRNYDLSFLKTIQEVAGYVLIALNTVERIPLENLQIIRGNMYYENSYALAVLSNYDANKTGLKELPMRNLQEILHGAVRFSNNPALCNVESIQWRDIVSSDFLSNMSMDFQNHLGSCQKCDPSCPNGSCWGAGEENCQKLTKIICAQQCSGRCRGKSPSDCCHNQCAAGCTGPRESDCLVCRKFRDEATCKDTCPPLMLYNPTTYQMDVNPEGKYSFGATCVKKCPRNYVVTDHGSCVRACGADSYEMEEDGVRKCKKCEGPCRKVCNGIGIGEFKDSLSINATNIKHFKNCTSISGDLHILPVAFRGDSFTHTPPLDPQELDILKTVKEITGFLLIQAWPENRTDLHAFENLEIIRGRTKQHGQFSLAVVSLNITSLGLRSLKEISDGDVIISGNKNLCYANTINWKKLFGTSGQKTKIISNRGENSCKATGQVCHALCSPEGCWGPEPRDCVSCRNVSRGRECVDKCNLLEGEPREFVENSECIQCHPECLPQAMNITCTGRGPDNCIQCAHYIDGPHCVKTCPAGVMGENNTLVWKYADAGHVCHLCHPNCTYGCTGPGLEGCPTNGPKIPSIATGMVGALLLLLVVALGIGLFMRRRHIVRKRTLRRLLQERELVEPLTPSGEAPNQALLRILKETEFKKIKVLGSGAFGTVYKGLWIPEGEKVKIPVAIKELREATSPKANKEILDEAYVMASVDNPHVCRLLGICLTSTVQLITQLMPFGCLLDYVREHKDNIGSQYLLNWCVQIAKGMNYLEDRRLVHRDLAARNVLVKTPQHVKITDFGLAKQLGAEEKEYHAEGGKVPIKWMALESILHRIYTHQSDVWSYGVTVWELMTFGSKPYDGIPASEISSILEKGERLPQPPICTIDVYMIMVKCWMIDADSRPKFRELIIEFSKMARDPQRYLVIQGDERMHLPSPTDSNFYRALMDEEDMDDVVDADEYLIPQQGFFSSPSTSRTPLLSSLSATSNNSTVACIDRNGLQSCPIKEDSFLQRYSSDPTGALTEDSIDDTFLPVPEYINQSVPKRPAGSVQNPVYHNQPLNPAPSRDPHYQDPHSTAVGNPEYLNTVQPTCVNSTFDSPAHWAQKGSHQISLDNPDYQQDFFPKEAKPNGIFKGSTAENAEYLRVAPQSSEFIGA
T2 sequence (P19784 whole entry): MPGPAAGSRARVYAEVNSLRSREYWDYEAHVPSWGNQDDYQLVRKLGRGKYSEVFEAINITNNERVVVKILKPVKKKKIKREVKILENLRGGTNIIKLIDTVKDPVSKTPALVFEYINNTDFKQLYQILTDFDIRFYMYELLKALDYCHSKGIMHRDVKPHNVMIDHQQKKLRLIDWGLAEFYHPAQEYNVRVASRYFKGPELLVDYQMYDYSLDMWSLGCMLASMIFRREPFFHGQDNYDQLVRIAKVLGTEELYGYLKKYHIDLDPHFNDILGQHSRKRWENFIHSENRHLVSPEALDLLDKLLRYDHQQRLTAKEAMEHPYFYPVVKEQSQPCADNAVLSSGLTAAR

| SMILES | remaining binding at 1 µM [1] [%] | remaining binding at 1 µM [2] [%] | remaining binding at 1 µM [3] [%] | remaining binding at 1 µM [4] [%] | remaining binding at 1 µM [5] [%] | remaining binding at 1 µM [6] [%] |
| --- | --- | --- | --- | --- | --- | --- |
| CCNc1nc(Nc2ccc(C(=O)N3CCC(N4CCOCC4)CC3)cc2OC)nc2[nH]cc(C(F)(F)F)c12 [Example 104, (4-((4-(ethylamino)-5-(trifluoromethyl)-7H-pyrrolo[2,3-d]pyrimidine-2-yl)amino)-3-methoxyphenyl)(4-morpholinopiperidine-1-yl)methanone] | 99 | 95 | 100 | 100 | 100 | 100 |
| CC1(Nc2nc(Nc3cnn([C@H]4CCN(C5COC5)C[C@@H]4F)c3Cl)nc3[nH]cc(C#N)c23)CC1 [Example 52, 2-((5-chloro-1-((3S,4S)-3-fluoro-1-(oxetane-3-yl)piperidine-4-yl)-1H-pyrazole-4-yl)amino)((1-methylcyclopropyl)amino)-7H-pyrrolo[2,3-d]pyrimidine-5-carbonitrile] | 53 | 11 | 95 | 0.45 | 20 | 0 |
| CNc1nc(Nc2ccc(C(=O)N3CCOCC3)cc2OC)nc2[nH]cc(C#N)c12 [Example 1, 2-((2-methoxy-4-(morpholine-4-carbonyl)phenyl)amino)-4-(methylamino)-7H-pyrrolo[2,3-d]pyrimidine-5-carbonitrile] | 100 | 76 | 93 | 100 | 96 | 62 |
